Entries after “also recorded” stand apart in the source; their conditions may differ.
Tested on: female 129S6/SvEv mice
Assay: Contextual fear conditioning (CFC), 3-shock, freezing in training and context re-exposure
Conditions: for p, Sal vs. drug, Dunnett test: Freezing (Average), Contextual Fear Conditioning Re-exposure / p, Freezing (min 1-5) / p, Freezing (min 2) / p, Freezing (min 3) / p, Freezing (min 4) / p, Freezing (min 5): 1 week prophylactic drug
[1] = 0.025 mg/kg, 24 hours before CFC, female mice
[2] = Contextual Fear Conditioning Re-exposure, Dunnett test Sal vs. drug (0.025)
[3] = Contextual Fear Conditioning Re-exposure, Dunnett test Sal vs. drug (0.075)
[4] = Contextual Fear Conditioning Re-exposure, Dunnett test Sal vs. drug (0.1)
[5] = Contextual Fear Conditioning Re-exposure, Dunnett test Sal vs. drug (0.3)
[6] = Contextual Fear Conditioning Re-exposure, Dunnett test Sal vs. drug (2.5)
[7] = Contextual Fear Conditioning Re-exposure, Dunnett test Sal vs. drug (10)
[8] = Contextual Fear Conditioning Training, Dunnett test Sal vs. drug (0.025)

Compound: N[C@@]1(c2ccccc2Cl)CCC[C@@H](O)C1=O [(2R,6R)-HNK, (2R,6R)-hydroxynorketamine]
- p, Sal vs. drug, Dunnett test: Freezing (Average), Contextual Fear Conditioning Re-exposure (0.025 mg/kg): 0.4341
- Freezing / fear expression during re-exposure vs saline [1]: comparable levels of freezing
- Freezing / fear learning during CFC training vs saline [1]: comparable levels of freezing; also recorded: did not alter fear learning
- p, Sal vs. drug, Dunnett test: Freezing (Average), Contextual Fear Conditioning Re-exposure (0.075 mg/kg): 0.9955
- p, Sal vs. drug, Dunnett test: Freezing (Average), Contextual Fear Conditioning Re-exposure (0.1 mg/kg): 0.9257
- p, Sal vs. drug, Dunnett test: Freezing (Average), Contextual Fear Conditioning Re-exposure (0.3 mg/kg): 0.9993
- p, Sal vs. drug, Dunnett test: Freezing (Average), Contextual Fear Conditioning Re-exposure (2.5 mg/kg): 0.6274
- Freezing during 3-shock CFC training vs saline (10 mg/kg, 1 week before CFC, female mice): significantly lowered freezing
- p, Sal vs. drug, Dunnett test: Freezing (Average), Contextual Fear Conditioning Re-exposure (10 mg/kg): 0.9991
- Freezing during context re-exposure vs saline (3 days before CFC, female mice): do not affect freezing during re-exposure
- p, Freezing (min 1-5) [2]: 0.4341
- p, Freezing (min 2) [2]: 0.1669
- p, Freezing (min 3) [2]: 0.8139
- p, Freezing (min 4) [2]: 0.6797
- p, Freezing (min 5) [2]: 0.7607
- p, Freezing (min 1-5) [3]: 0.9955
- p, Freezing (min 2) [3]: >0.9999
- p, Freezing (min 3) [3]: 0.9009
- p, Freezing (min 4) [3]: 0.9994
- p, Freezing (min 5) [3]: 0.9990
- p, Freezing (min 1-5) [4]: 0.9257
- p, Freezing (min 2) [4]: 0.9990
- p, Freezing (min 3) [4]: 0.9333
- p, Freezing (min 4) [4]: 0.9679
- p, Freezing (min 5) [4]: 0.8119
- p, Freezing (min 1-5) [5]: 0.9993
- p, Freezing (min 2) [5]: 0.9998
- p, Freezing (min 3) [5]: 0.9954
- p, Freezing (min 4) [5]: 0.9994
- p, Freezing (min 5) [5]: 0.9991
- p, Freezing (min 1-5) [6]: 0.6274
- p, Freezing (min 2) [6]: 0.2365
- p, Freezing (min 3) [6]: 0.4707
- p, Freezing (min 4) [6]: 0.3440
- p, Freezing (min 5) [6]: 0.9997
- p, Freezing (min 1-5) [7]: 0.9991
- p, Freezing (min 2) [7]: 0.9994
- p, Freezing (min 3) [7]: 0.9074
- p, Freezing (min 4) [7]: 0.9994
- p, Freezing (min 5) [7]: 0.9003
- p, Freezing (min 1-5) [8]: 0.7272
- p, Freezing (min 4) [8]: 0.9640
- p, Freezing (min 5) [8]: 0.9668
- p, Freezing (min 1-5) (Contextual Fear Conditioning Training, Dunnett test Sal vs. drug (0.075)): 0.9917

Reference: US11491120B2, “Pharmacological prophylactics against stress-induced affective disorders in females” (The Trustees of Columbia University in the City of New York, priority 2017, dated 2022)
